{
  "source": "BigSolDB 2.1",
  "data": [
    {"smiles": "O=[N+]([O-])c1ncccc1O", "values": [
      {"measurement": "solubility (mole fraction)", "setting": "in THF, 278.15 K", "result": 0.213},
      {"measurement": "solubility (mole fraction)", "setting": "in THF, 283.15 K", "result": 0.243},
      {"measurement": "solubility (mole fraction)", "setting": "in THF, 288.15 K", "result": 0.274},
      {"measurement": "solubility (mole fraction)", "setting": "in THF, 293.15 K", "result": 0.312},
      {"measurement": "solubility (mole fraction)", "setting": "in THF, 298.15 K", "result": 0.35},
      {"measurement": "solubility (mole fraction)", "setting": "in THF, 303.15 K", "result": 0.396},
      {"measurement": "solubility (mole fraction)", "setting": "in THF, 308.15 K", "result": 0.446},
      {"measurement": "solubility (mole fraction)", "setting": "in THF, 313.15 K", "result": 0.502},
      {"measurement": "solubility (mole fraction)", "setting": "in THF, 318.15 K", "result": 0.57},
      {"measurement": "solubility (mole fraction)", "setting": "in acetone, 278.15 K", "result": 0.157},
      {"measurement": "solubility (mole fraction)", "setting": "in acetone, 283.15 K", "result": 0.184},
      {"measurement": "solubility (mole fraction)", "setting": "in acetone, 288.15 K", "result": 0.219},
      {"measurement": "solubility (mole fraction)", "setting": "in acetone, 293.15 K", "result": 0.259},
      {"measurement": "solubility (mole fraction)", "setting": "in acetone, 298.15 K", "result": 0.304},
      {"measurement": "solubility (mole fraction)", "setting": "in acetone, 303.15 K", "result": 0.354},
      {"measurement": "solubility (mole fraction)", "setting": "in acetone, 308.15 K", "result": 0.41},
      {"measurement": "solubility (mole fraction)", "setting": "in acetone, 313.15 K", "result": 0.474},
      {"measurement": "solubility (mole fraction)", "setting": "in acetone, 318.15 K", "result": 0.544},
      {"measurement": "solubility (mole fraction)", "setting": "in acetonitrile, 278.15 K", "result": 0.113},
      {"measurement": "solubility (mole fraction)", "setting": "in acetonitrile, 283.15 K", "result": 0.141},
      {"measurement": "solubility (mole fraction)", "setting": "in acetonitrile, 288.15 K", "result": 0.171},
      {"measurement": "solubility (mole fraction)", "setting": "in acetonitrile, 293.15 K", "result": 0.207},
      {"measurement": "solubility (mole fraction)", "setting": "in acetonitrile, 298.15 K", "result": 0.247},
      {"measurement": "solubility (mole fraction)", "setting": "in acetonitrile, 303.15 K", "result": 0.299},
      {"measurement": "solubility (mole fraction)", "setting": "in acetonitrile, 308.15 K", "result": 0.359},
      {"measurement": "solubility (mole fraction)", "setting": "in acetonitrile, 313.15 K", "result": 0.428},
      {"measurement": "solubility (mole fraction)", "setting": "in acetonitrile, 318.15 K", "result": 0.502},
      {"measurement": "solubility (mole fraction)", "setting": "in ethanol, 278.15 K", "result": 0.0236},
      {"measurement": "solubility (mole fraction)", "setting": "in ethanol, 283.15 K", "result": 0.0334},
      {"measurement": "solubility (mole fraction)", "setting": "in ethanol, 288.15 K", "result": 0.0482},
      {"measurement": "solubility (mole fraction)", "setting": "in ethanol, 293.15 K", "result": 0.0653},
      {"measurement": "solubility (mole fraction)", "setting": "in ethanol, 298.15 K", "result": 0.0924},
      {"measurement": "solubility (mole fraction)", "setting": "in ethanol, 303.15 K", "result": 0.128},
      {"measurement": "solubility (mole fraction)", "setting": "in ethanol, 308.15 K", "result": 0.173},
      {"measurement": "solubility (mole fraction)", "setting": "in ethanol, 313.15 K", "result": 0.232},
      {"measurement": "solubility (mole fraction)", "setting": "in ethanol, 318.15 K", "result": 0.306},
      {"measurement": "solubility (mole fraction)", "setting": "in ethyl acetate, 278.15 K", "result": 0.108},
      {"measurement": "solubility (mole fraction)", "setting": "in ethyl acetate, 283.15 K", "result": 0.128},
      {"measurement": "solubility (mole fraction)", "setting": "in ethyl acetate, 288.15 K", "result": 0.151},
      {"measurement": "solubility (mole fraction)", "setting": "in ethyl acetate, 293.15 K", "result": 0.181},
      {"measurement": "solubility (mole fraction)", "setting": "in ethyl acetate, 298.15 K", "result": 0.215},
      {"measurement": "solubility (mole fraction)", "setting": "in ethyl acetate, 303.15 K", "result": 0.254},
      {"measurement": "solubility (mole fraction)", "setting": "in ethyl acetate, 308.15 K", "result": 0.301},
      {"measurement": "solubility (mole fraction)", "setting": "in ethyl acetate, 313.15 K", "result": 0.357},
      {"measurement": "solubility (mole fraction)", "setting": "in ethyl acetate, 318.15 K", "result": 0.423},
      {"measurement": "solubility (mole fraction)", "setting": "in isopropanol, 278.15 K", "result": 0.0158},
      {"measurement": "solubility (mole fraction)", "setting": "in isopropanol, 283.15 K", "result": 0.0226},
      {"measurement": "solubility (mole fraction)", "setting": "in isopropanol, 288.15 K", "result": 0.0318},
      {"measurement": "solubility (mole fraction)", "setting": "in isopropanol, 293.15 K", "result": 0.0442},
      {"measurement": "solubility (mole fraction)", "setting": "in isopropanol, 298.15 K", "result": 0.0621},
      {"measurement": "solubility (mole fraction)", "setting": "in isopropanol, 303.15 K", "result": 0.0863},
      {"measurement": "solubility (mole fraction)", "setting": "in isopropanol, 308.15 K", "result": 0.12},
      {"measurement": "solubility (mole fraction)", "setting": "in isopropanol, 313.15 K", "result": 0.165},
      {"measurement": "solubility (mole fraction)", "setting": "in isopropanol, 318.15 K", "result": 0.224},
      {"measurement": "solubility (mole fraction)", "setting": "in methanol, 278.15 K", "result": 0.0395},
      {"measurement": "solubility (mole fraction)", "setting": "in methanol, 283.15 K", "result": 0.0551},
      {"measurement": "solubility (mole fraction)", "setting": "in methanol, 288.15 K", "result": 0.0807},
      {"measurement": "solubility (mole fraction)", "setting": "in methanol, 293.15 K", "result": 0.111},
      {"measurement": "solubility (mole fraction)", "setting": "in methanol, 298.15 K", "result": 0.153},
      {"measurement": "solubility (mole fraction)", "setting": "in methanol, 303.15 K", "result": 0.206},
      {"measurement": "solubility (mole fraction)", "setting": "in methanol, 308.15 K", "result": 0.271},
      {"measurement": "solubility (mole fraction)", "setting": "in methanol, 313.15 K", "result": 0.352},
      {"measurement": "solubility (mole fraction)", "setting": "in methanol, 318.15 K", "result": 0.446},
      {"measurement": "solubility (mole fraction)", "setting": "in n-hexane, 278.15 K", "result": 0.00055},
      {"measurement": "solubility (mole fraction)", "setting": "in n-hexane, 283.15 K", "result": 0.00077},
      {"measurement": "solubility (mole fraction)", "setting": "in n-hexane, 288.15 K", "result": 0.00105},
      {"measurement": "solubility (mole fraction)", "setting": "in n-hexane, 293.15 K", "result": 0.00144},
      {"measurement": "solubility (mole fraction)", "setting": "in n-hexane, 298.15 K", "result": 0.00192},
      {"measurement": "solubility (mole fraction)", "setting": "in n-hexane, 303.15 K", "result": 0.00266},
      {"measurement": "solubility (mole fraction)", "setting": "in n-hexane, 308.15 K", "result": 0.00373},
      {"measurement": "solubility (mole fraction)", "setting": "in n-hexane, 313.15 K", "result": 0.00522},
      {"measurement": "solubility (mole fraction)", "setting": "in n-hexane, 318.15 K", "result": 0.00736},
      {"measurement": "solubility (mole fraction)", "setting": "in n-propanol, 278.15 K", "result": 0.0299},
      {"measurement": "solubility (mole fraction)", "setting": "in n-propanol, 283.15 K", "result": 0.0391},
      {"measurement": "solubility (mole fraction)", "setting": "in n-propanol, 288.15 K", "result": 0.0523},
      {"measurement": "solubility (mole fraction)", "setting": "in n-propanol, 293.15 K", "result": 0.0716},
      {"measurement": "solubility (mole fraction)", "setting": "in n-propanol, 298.15 K", "result": 0.0947},
      {"measurement": "solubility (mole fraction)", "setting": "in n-propanol, 303.15 K", "result": 0.127},
      {"measurement": "solubility (mole fraction)", "setting": "in n-propanol, 308.15 K", "result": 0.17},
      {"measurement": "solubility (mole fraction)", "setting": "in n-propanol, 313.15 K", "result": 0.224},
      {"measurement": "solubility (mole fraction)", "setting": "in n-propanol, 318.15 K", "result": 0.292},
      {"measurement": "solubility (mole fraction)", "setting": "in water, 278.15 K", "result": 0.00083},
      {"measurement": "solubility (mole fraction)", "setting": "in water, 283.15 K", "result": 0.00107},
      {"measurement": "solubility (mole fraction)", "setting": "in water, 288.15 K", "result": 0.00149},
      {"measurement": "solubility (mole fraction)", "setting": "in water, 293.15 K", "result": 0.0021},
      {"measurement": "solubility (mole fraction)", "setting": "in water, 298.15 K", "result": 0.00283},
      {"measurement": "solubility (mole fraction)", "setting": "in water, 303.15 K", "result": 0.00393},
      {"measurement": "solubility (mole fraction)", "setting": "in water, 308.15 K", "result": 0.00544},
      {"measurement": "solubility (mole fraction)", "setting": "in water, 313.15 K", "result": 0.00753},
      {"measurement": "solubility (mole fraction)", "setting": "in water, 318.15 K", "result": 0.0109}
    ]}
  ]
}
